A word on the inhibition: it is the percentage by which the read-out fell short of the control.

Results on nine compounds are retold here after ChEMBL document CHEMBL5393447, “Selective foxo inhibitors for treatment of diabetes and other disorders related to impaired pancreatic function” (2022).

Structures are written as SMILES.

System in one data set: not listed separately
The experiment in a line: Metabolic stability in human hepatocytes assessed as compound remaining at 0.3 uM measured upto 90 mins by LC-MS/MS analysis. The data set is classed as ADME, cell-based, Hepatocyte. The note with it: read-out: Stability.
For the compound `O=C(Nc1cc(-c2nc3ccccc3[nH]2)n[nH]1)c1ccc(N2CCNCC2)cc1`, the remaining at 1.5 h, 0.3 µM was 110%.

The target of the next data set is Forkhead box protein O1 (Homo sapiens) (UniProt Q12778). The conditions noted are these: HEK293, dose 1-50000 nM.
Forkhead box protein O1 (Homo sapiens), sequence (Q12778 whole entry): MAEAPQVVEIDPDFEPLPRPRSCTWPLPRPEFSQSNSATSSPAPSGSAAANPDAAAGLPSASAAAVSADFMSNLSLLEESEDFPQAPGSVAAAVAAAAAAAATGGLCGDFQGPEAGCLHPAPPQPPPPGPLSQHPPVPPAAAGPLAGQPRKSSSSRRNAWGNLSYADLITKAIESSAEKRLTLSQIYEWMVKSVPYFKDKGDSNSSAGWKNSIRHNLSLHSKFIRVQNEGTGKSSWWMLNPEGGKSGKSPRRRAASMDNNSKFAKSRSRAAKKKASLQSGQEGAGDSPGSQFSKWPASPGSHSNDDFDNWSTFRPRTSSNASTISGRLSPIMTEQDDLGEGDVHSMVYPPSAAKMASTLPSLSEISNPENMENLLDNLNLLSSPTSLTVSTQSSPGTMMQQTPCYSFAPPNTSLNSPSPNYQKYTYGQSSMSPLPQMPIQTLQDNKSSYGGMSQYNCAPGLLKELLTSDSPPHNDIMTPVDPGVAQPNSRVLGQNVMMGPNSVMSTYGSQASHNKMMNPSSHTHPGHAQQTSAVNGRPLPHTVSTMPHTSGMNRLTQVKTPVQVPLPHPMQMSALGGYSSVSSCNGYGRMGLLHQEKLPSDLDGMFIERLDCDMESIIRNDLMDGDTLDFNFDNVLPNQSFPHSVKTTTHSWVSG
Description: Inhibition of human FOXO1 expressed in HEK293 cells at 1 nM to 50 uM by Dual-Glo luciferase assay relative to control
In the case of `CN1CCC(c2ccc(C(=O)Nc3cc(-c4nc5ccccc5[nH]4)n[nH]3)cc2)CC1`, the inhibition is more than 40%.

Take `CC(=O)N1CCN(c2ccc(C(=O)Nc3cc(-c4nc5ccccc5[nH]4)n[nH]3)cc2)CC1`: the inhibition is more than 40%.

In the case of `COc1ccc(C(=O)Nc2cc(-c3nc4cc(C(F)(F)F)ccc4[nH]3)[nH]n2)cc1Cl`, the inhibition is more than 40%.

For the compound `COc1ccc(C(=O)Nc2cc(-c3nc4cc(OC(F)(F)F)ccc4[nH]3)[nH]n2)cc1Cl`, the inhibition was more than 40%.

Consider `CN1CCN(c2ccc(C(=O)Nc3cc(-c4nc5ccccc5[nH]4)n[nH]3)cc2)CC1`, for which the inhibition was more than 40%.

`Nc1cc(-c2nc3ccccc3[nH]2)n[nH]1` came in with an inhibition of less than 40%.

For `COc1ccc(C(=O)Nc2cc(-c3nc4c(C(F)(F)F)cccc4[nH]3)[nH]n2)cc1Cl`, the inhibition was more than 40%.

`CC(=O)Nc1cc(-c2nc3ccccc3[nH]2)n[nH]1`: the inhibition was less than 40%.
